Paper PMC6219668 (Oncotarget, 2018)

What was measured:
T47D = assay: cells; assay type: cell-based; conditions: Homo sapiens, ER+ BC, dominant CDK4, read-out: IC50, mean ± SD
PC-14 = assay: cells; assay type: cell-based; conditions: Homo sapiens, PC-14, 72 h
BT-483 = assay: cells; assay type: cell-based; conditions: Homo sapiens, BT-483, 72 h
HBCx-1 = assay type: in vivo; conditions: HBCx-1, Breast, HER2High, Rb absent; 125 mg/kg bid × 21
WBCs and ANC = assay: Blood counts in JeKo-1 rat model; assay type: in vivo; conditions: all treatment groups compared with vehicle
Source text: To further characterize the pharmacokinetic/pharmacodynamic (PK/PD) relationship and simultaneously compare antitumor effects with white blood cell (WBC) counts in host animals, we used the JeKo-1 xenograft model in nude rats. […]. We observed dose-proportional increases in both drug exposure and target inhibition (Supplementary Table 5). […]. This dose-proportional target inhibition correlated with dose-dependent antitumor efficacy in the same JeKo-1 xenograft model.

[1] = assay type: in vivo
VCAP = assay: cells; assay type: cell-based; conditions: Homo sapiens, 72 h
KYSE450 = assay: cells; assay type: cell-based; conditions: Homo sapiens, KYSE-450; KYSE450, 72 h
SK-MEL-2 = assay: cells; assay type: cell-based; conditions: Homo sapiens, SK-MEL-2, 72 h
LnCAP = assay: cells; assay type: cell-based; conditions: Homo sapiens, 72 h
[2] = system: JeKo-1 mantle cell lymphoma cells; design: method as in Brain C et al, manuscript in preparation; conditions: RB1-proficient; ref Brain C et al, manuscript in preparation; cited from earlier work
HCC-4006 = assay: cells; assay type: cell-based; conditions: Homo sapiens, HCC4006; HCC-4006, 72 h
SK-N-SH = assay: cells; assay type: cell-based; conditions: Homo sapiens, 72 h
A2058 = assay: cells; assay type: cell-based; conditions: Homo sapiens, A2058, 72 h
SK-MEL-5 = assay: cells; assay type: cell-based; conditions: Homo sapiens, SK-MEL-5, 72 h
MGH049 = assay: cells; assay type: cell-based; conditions: MGH049, 72 h

SMILES	IC50 (T47D) [µM]	IC50 (PC-14) [µM]	IC50 (BT-483) [µM]	T/C (HBCx-1)	absolute neutrophil counts (WBCs and ANC)	total WBC counts (WBCs and ANC)	body weight loss ([1]; 150 mg/kg)	tolerability ([1]; all ribociclib doses, no significant body weight loss)	IC50 (VCAP) [µM]	IC50 (KYSE450) [µM]	IC50 (SK-MEL-2) [µM]	IC50 (LnCAP) [µM]	effect on pRb and cell cycle [2]	IC50 (HCC-4006) [µM]	IC50 (SK-N-SH) [µM]	IC50 (A2058) [µM]	IC50 (SK-MEL-5) [µM]	IC50 (MGH049) [µM]
CC(=O)c1c(C)c2cnc(Nc3ccc(N4CCNCC4)cn3)nc2n(C2CCCC2)c1=O [Palbociclib, reference compound]	66 ± 19	–	–	–	–	–	–	–	–	–	–	–	–	–	–	–	–	–
CN(C)C(=O)c1cc2cnc(Nc3ccc(N4CCNCC4)cn3)nc2n1C1CCCC1 [Ribociclib, 7-cyclopentyl-2-(5-piperazin-1-yl-pyridin-2-ylamino)-7H-pyrrolo[2,3-d]pyrimidine-6-carboxylic acid dimethylamide]	–	6.98	> 10	80	reduced	reduced	only minimal transient body weight loss	well tolerated	> 10	> 10	> 10	1	dephosphorylation of phosphorylated Rb (pRb) and concomitant G1 cell-cycle arrest	> 10	9	> 10	2.09	0.54
